Laboratory results from patent US8940715B2, “Lipid-regulating agent and use thereof” (Hayashibara Co., Ltd., priority 2003, dated 2015).
Marks after values point to notes of the source that are not given here.

What was measured:
[1] = system: male Wister-rats; test: Experiment 1-1 GOT activity in blood plasma (hepatic function disorder check); type: in vivo, rat; details: for GOT: blood plasma, 4 weeks, rat
Excerpt: (§1) Fifty 5-weeks aged male Wister-rats, having a weight of 110 to 120 grams, commercialized by Charles River Japan, Kanagawa, Japan, were fed on a non-fiber feed having a composition shown in Table 1 for one week for habituation. After the habituation, the rats were randomly divided into five groups and each group was fed on either of feeds shown in Table 1, i.e., a non-fiber feed, a feed in which cellulose was incorporated into the non-fiber feed to give a content of 5% (hereinafter, abbreviated as “fiber feed”), a feed in which powdery anhydrous crystalline CTS (purity of CTS: 99.5%), prepared by the method of Example A-3 described later, was incorporated into the non-fiber feed to give a content of 1, 2, or 5%, on a dry solid basis, and the feeding test was carried out for four weeks. A fiber-feed and three kinds of feeds comprising CTS were prepared to give the total content of cellulose or CTS and corn starch of 44.75% to the total weight of each feed. The rats were kept under the conditions of keeping the temperature at 25° C., lighting and shading for 12 hours each/day, and allowing the rats to eat the respective feed and water freely. After the completion of the feeding test, weight of individuals in each group was measured and an average weight and an average increase of weight of each group during the test period were calculated. Also, the total amount of feed fed to individual rat in each group during the 4-weeks test period and an average amount of CTS taken per day per kg-weight-rat were calculated and the results are in Table 2.
After the feeding test, each rat was fasted for one day and incised under anesthesia with ether. Then, blood was collected from the main vein of each rat using a syringe treated with 1% EDTA. Each collected blood was centrifuged at 3,500 rpm for 10 minutes to separate blood plasma and the contents of total cholesterol, triglyceride, and phospholipids in the resulting blood plasma were measured by using kits, “CHOLESTEROL C-TEST-WAKO”, “TRIGLYCERIDE-TEST-WAKO”, and “PHOSPHOLIPID C-TEST-WAKO”, respectively, commercialized by Wako Pure Chemical Industries, Ltd., Osaka, Japan. In order to check the hepatic function disorder, GOT activity in the blood plasma was measured using a kit, “GOT-TEST-WAKO”, commercialized by Wako Pure Chemical Industries, Ltd., Osaka, Japan. The content of LDL-cholesterol was calculated by subtracting the content of HDL-cholesterol from the total content of cholesterol. A significant difference test was done with respect to the group fed on fiber feed. […]

[2] = system: male Wister-rats; test: Experiment 1-1 wet-weight of adipose tissues around organs; type: in vivo; details: 4 weeks, rat
Excerpt: as §1
(§2) After collecting the blood described above, each rat was killed by dislocating its cervical vertebrae and anatomized. Then, adipose tissues surrounding intestinal membrane, kidney, and testis, as well as liver and cecum, were collected. The wet-weight of those adipose tissues was measured and the results are in Table 4. In the case of liver, the wet-weight and the amount of total lipid, total cholesterol, triglyceride, and phospholipids were measured and the results are in Table 5. The amount of total lipid, total cholesterol, triglyceride, and phospholipids in the liver were measured by the steps of homogenizing four parts by weight of liver with four parts by weight of water using a homogenizer; extracting lipid by repeating three-times the following procedure of adding eight milliliters of a chloroform-methanol (2:1, by volume) solution, stirring the mixture, and centrifuging (3,000 rpm, 15 min) to collect chloroform phase; concentrating the resulting chloroform solution; and measuring those according to the same procedure used in the case of lipids in blood plasma.

[3] = Experiment 1-1 feeding test on rat: weight and amount of feed taken; type: in vivo; details: 4 weeks
Excerpt: as §1

[4] = system: male Wister-rats; test: Experiment 1-1 cecal tissue, cecal content and bile acids in cecum; type: in vivo; details: 4 weeks, rat
Excerpt: Fifty 5-weeks aged male Wister-rats, having a weight of 110 to 120 grams, commercialized by Charles River Japan, Kanagawa, Japan, were fed on a non-fiber feed having a composition shown in Table 1 for one week for habituation. After the habituation, the rats were randomly divided into five groups and each group was fed on either of feeds shown in Table 1, i.e., a non-fiber feed, a feed in which cellulose was incorporated into the non-fiber feed to give a content of 5% (hereinafter, abbreviated as “fiber feed”), a feed in which powdery anhydrous crystalline CTS (purity of CTS: 99.5%), prepared by the method of Example A-3 described later, was incorporated into the non-fiber feed to give a content of 1, 2, or 5%, on a dry solid basis, and the feeding test was carried out for four weeks. A fiber-feed and three kinds of feeds comprising CTS were prepared to give the total content of cellulose or CTS and corn starch of 44.75% to the total weight of each feed. […] After the completion of the feeding test, weight of individuals in each group was measured and an average weight and an average increase of weight of each group during the test period were calculated. Also, the total amount of feed fed to individual rat in each group during the 4-weeks test period and an average amount of CTS taken per day per kg-weight-rat were calculated and the results are in Table 2.
Just after extirpating cecum as described above, its content was collected and weighted. The concentration of bile acids was measured by the steps of adding two milliliters of 80% (v/v) methanol aqueous solution to 0.2 gram of the cecal content, extracting bile acids at 70° C. for 30 min, centrifuging (3,500 rpm, 10 min) the mixture, drying the resulting supernatant in a dessicator with P2O5 for overnight, and measuring bile acids using a kit, “BILE ACID-TEST WAKO”, commercialized by Wako Pure Chemical Industries, Ltd., Osaka, Japan. The amount of bile acids was calculated by multiplying the concentration of bile acids and weight of the cecal content. […]

[5] = system: male Wister-rats; test: Experiment 1-1 observation of diarrhea during feeding test; type: in vivo, rat
Excerpt: as §1
The symptom of diarrhea was not observed in rats fed on a feed with CTS content of 2%.

[6] = system: male Wister-rats; test: Experiment 1-1 liver weight and lipids in liver; type: in vivo; details: 4 weeks, rat
Excerpt: as §1, §2

[7] = system: male Wister-rats; test: Experiment 1-1 amount of lipids in blood plasma; type: in vivo; details: 4 weeks, rat
Excerpt: as §1
After the feeding test, each rat was fasted for one day and incised under anesthesia with ether. Then, blood was collected from the main vein of each rat using a syringe treated with 1% EDTA. Each collected blood was centrifuged at 3,500 rpm for 10 minutes to separate blood plasma and the contents of total cholesterol, triglyceride, and phospholipids in the resulting blood plasma were measured by using kits, “CHOLESTEROL C-TEST-WAKO”, “TRIGLYCERIDE-TEST-WAKO”, and “PHOSPHOLIPID C-TEST-WAKO”, respectively, commercialized by Wako Pure Chemical Industries, Ltd., Osaka, Japan. In order to check the hepatic function disorder, GOT activity in the blood plasma was measured using a kit, “GOT-TEST-WAKO”, commercialized by Wako Pure Chemical Industries, Ltd., Osaka, Japan. The content of LDL-cholesterol was calculated by subtracting the content of HDL-cholesterol from the total content of cholesterol. A significant difference test was done with respect to the group fed on fiber feed. In the case of cholesterol, a significant difference test was done with respect to the group fed on non-fiber feed because it was believed that cellulose has no activity of reducing the amount of cholesterol by oral intake as described in “SHOKUMOTSU-SENI KISO-TO-OYO (Dietary fiber, its basis and application)” published by ASAKURA-SHOTEN in 1997.

[8] = 5% (w/w) CTS (Fiber: 5% cellulose) in feed

**Q.** With `OCC1OC2OCC3O[C@H](O[C@H]4C(O)C(CO)OC(OCC5O[C@H](O[C@@H](C1O)C2O)C(O)C(O)[C@@H]5O)C4O)C(O)C(O)[C@@H]3O` (stereo partly drawn) [CTS, cyclo {→6)-α-D-glucopyranosyl-(1→3)-α-D-glucopyranosyl-(1→6)-α-D-glucopyranosyl-(1→3)-α-D-glucopyranosyl-(1→}] as the compound, how does the GOT ([1]; 1% (w/w) CTS in feed) read?
**A.** 10.3 IU

**Q.** And the GOT ([1]; 2% (w/w) CTS in feed)?
**A.** 10.2 IU

**Q.** And the GOT [1, 8]?
**A.** 10.7 IU

**Q.** What about the “GOT values (markers of functional disorder of liver) during the test period” value ([1]; rats, regardless of the intake of CTS) of the same compound?
**A.** not significantly changed

**Q.** What about the “Adipose surrounding intestinal membrane” value ([2]; 1% (w/w) CTS in feed) of the same compound?
**A.** 3.7 g/individual

**Q.** What about the Adipose surrounding kidney ([2]; 1% (w/w) CTS in feed) of the same compound?
**A.** 3.7* g/individual

**Q.** What about the Adipose surrounding testis ([2]; 1% (w/w) CTS in feed) of the same compound?
**A.** 4.0* g/individual

**Q.** What about the “Adipose surrounding intestinal membrane” value ([2]; 2% (w/w) CTS in feed) of the same compound?
**A.** 3.1* g/individual

**Q.** What about the Adipose surrounding kidney ([2]; 2% (w/w) CTS in feed) of the same compound?
**A.** 2.9* g/individual

**Q.** And the Adipose surrounding testis ([2]; 2% (w/w) CTS in feed)?
**A.** 3.9* g/individual

**Q.** And the “Adipose surrounding intestinal membrane” value [2, 8]?
**A.** 1.9* g/individual

**Q.** What about the Adipose surrounding kidney [2, 8] of the same compound?
**A.** 2.1* g/individual

**Q.** And the Adipose surrounding testis [2, 8]?
**A.** 3.1* g/individual

**Q.** And the Increase of weight ([3]; 1% (w/w) CTS in feed)?
**A.** 164 g/individual/28 days

**Q.** What about the Weight ([3]; 1% (w/w) CTS in feed) of the same compound?
**A.** 337 g/individual

**Q.** What about the Increase of weight ([3]; 2% (w/w) CTS in feed) of the same compound?
**A.** 169 g/individual/28 days

**Q.** And the Weight ([3]; 2% (w/w) CTS in feed)?
**A.** 342 g/individual

**Q.** What about the Increase of weight [3, 8] of the same compound?
**A.** 149* g/individual/28 days

**Q.** And the Weight [3, 8]?
**A.** 322* g/individual

**Q.** What about the “Bile acids in cecum” value ([4]; 1% (w/w) CTS in feed) of the same compound?
**A.** 1.15* μmol

**Q.** And the “Bile acids in cecum” value ([4]; 2% (w/w) CTS in feed)?
**A.** 1.36* μmol

**Q.** What about the “Bile acids in cecum” value [4, 8] of the same compound?
**A.** 1.53* μmol

**Q.** What about the symptom of diarrhea ([5]; rats fed on a feed with CTS content of 2%) of the same compound?
**A.** not observed

**Q.** And the “duration of symptom of diarrhea after initial intake of CTS” value ([5]; rats fed on a feed with CTS content of 5%)?
**A.** 2 to 3 days

**Q.** What about the “symptom of diarrhea (individuals affected)” value ([5]; rats fed on a feed with CTS content of 5%, then cured) of the same compound?
**A.** two individuals in ten individuals

**Q.** What about the Phospholipids in liver ([6]; 1% (w/w) CTS in feed) of the same compound?
**A.** 140 mg/individual

**Q.** And the “Total cholesterols in liver” value ([6]; 1% (w/w) CTS in feed)?
**A.** 35.9 mg/individual

**Q.** What about the “Total lipids in liver” value ([6]; 1% (w/w) CTS in feed) of the same compound?
**A.** 510 mg/individual

**Q.** And the Triglycerides in liver ([6]; 1% (w/w) CTS in feed)?
**A.** 186 mg/individual

**Q.** What about the Phospholipids in liver ([6]; 2% (w/w) CTS in feed) of the same compound?
**A.** 149 mg/individual

**Q.** And the “Total cholesterols in liver” value ([6]; 2% (w/w) CTS in feed)?
**A.** 37.2 mg/individual

**Q.** And the “Total lipids in liver” value ([6]; 2% (w/w) CTS in feed)?
**A.** 598 mg/individual

**Q.** And the Triglycerides in liver ([6]; 2% (w/w) CTS in feed)?
**A.** 254 mg/individual

**Q.** And the Phospholipids in liver [6, 8]?
**A.** 142 mg/individual

**Q.** And the “Total cholesterols in liver” value [6, 8]?
**A.** 35.4 mg/individual

**Q.** And the “Total lipids in liver” value [6, 8]?
**A.** 575 mg/individual

**Q.** What about the Triglycerides in liver [6, 8] of the same compound?
**A.** 239 mg/individual

**Q.** What about the Phospholipids ([7]; 1% (w/w) CTS in feed) of the same compound?
**A.** 116 mg/dL

**Q.** What about the Total cholesterols ([7]; 1% (w/w) CTS in feed) of the same compound?
**A.** 67.1 mg/dL

**Q.** And the Triglycerides ([7]; 1% (w/w) CTS in feed)?
**A.** 44.2 mg/dL

**Q.** And the Phospholipids ([7]; 2% (w/w) CTS in feed)?
**A.** 115 mg/dL

**Q.** What about the Total cholesterols ([7]; 2% (w/w) CTS in feed) of the same compound?
**A.** 66.1 mg/dL

**Q.** What about the Triglycerides ([7]; 2% (w/w) CTS in feed) of the same compound?
**A.** 28.7* mg/dl

**Q.** What about the Phospholipids [7, 8] of the same compound?
**A.** 107 mg/dL

**Q.** And the Total cholesterols [7, 8]?
**A.** 59.4* mg/dl

**Q.** What about the Triglycerides [7, 8] of the same compound?
**A.** 21.7* mg/dl
